Measured values as given in patent US20220040169A1, “Methods for the Administration of Certain VMAT2 Inhibitors” (Neurocrine Biosciences, Inc., priority 2019, published 2022).

Columns and labels:
Solubility in water = format: physicochemical
From the text: INGREZZA contains valbenazine, present as valbenazine ditosylate salt, with the chemical name, L-Valine, (2R,3R,11bR)-1,3,4,6,7,11b-hexahydro-9,10-dimethoxy-3-(2-methylpropyl)-2H-benzo[a]quinolizin-2-yl ester, 4-methylbenzenesulfonate (1:2). […] Its molecular formula is C38H54N2O10S2, and its molecular weight is 762.97/mol (ditosylate salt) with the following structure: […]

[1] = Phase 2 and 3 controlled studies and long-term treatment in adults with tardive dyskinesia: Parkinson-like adverse events; format: in vivo, human
From the text: In the Phase 2 and 3 controlled studies in adults with tardive dyskinesia (treatment up to 6 weeks), the incidence of Parkinson-like adverse events (AEs) was 3% (vs. <1% for placebo) and 4% during long-term treatment with valbenazine (up to 48 weeks).

## COc1cc2c(cc1OC)[C@H]1C[C@@H](OC(=O)[C@@H](N)C(C)C)[C@H](CC(C)C)CN1CC2 [Valbenazine ditosylate, L-Valine, (2R,3R,11bR)-1,3,4,6,7,11b-hexahydro-9,10-dimethoxy-3-(2-methylpropyl)-2H-benzo[a]quinolizin-2-yl ester, 4-methylbenzenesulfonate (1:2)]
Solubility in water
  solubility in water: slightly soluble

## COc1cc2c(cc1OC)[C@H]1C[C@@H](OC(=O)[C@@H](N)C(C)C)[C@H](CC(C)C)CN1CC2 [valbenazine, (S)-2-amino-3-methyl-butyric acid (2R, 3R,11bR)-3-isobutyl-9,10-dimethoxy-1,3,4,6,7,11b-hexahydro-2H-pyrido[2,1-a]isoquinolin-2-yl ester]
[1]; NBI clinical studies in tardive dyskinesia patients
  serious Parkinson-like AEs: No serious Parkinson-like AEs were reported
[1]; Phase 2 and 3 controlled studies, adults with tardive dyskinesia, treatment up to 6 weeks, placebo <1%
  incidence of Parkinson-like adverse events (AEs): 3%
[1]; long-term treatment up to 48 weeks
  incidence of Parkinson-like adverse events (AEs) during long-term treatment: 4%
